Measured values published in patent US10988523B2, “Modified lipidated Relaxin B chain peptides and their therapeutic use” (Sanofi, priority 2018, dated 2021).
*1 amine or outer side, *2 acyl side, *3 side chain or, on linkers, in order; H or OH if unused. Where a SMILES comes first, the peptide text is derived from it. Side-chain parts run from the residue outwards. [ ]: non-standard residue; d: D form. The star is where a group is joined. X5 = CCCCCCCCCCCCCCCC(=O)N[C@@H](CCC(=O)NCCCC[C@H](NC(=O)CC[C@H](NC(=O)CC[C@H](NC(=O)CC[C@H](NC(=O)CCC(=O)NCCCOCCOCCOCCCNC(=O)CCC(=O)NCCCOCCOCCOCCCN*)C(=O)O)C(=O)O)C(=O)O)C(N)=O)C(=O)O; Arg(Me2s) = CN=C(NC)NCCC[C@H](N)C(=O)O; γGlu = O=C(O)[C@H](CCC(=O)[*:2])N[*:1]; Arg(Me) = CNC(=N)NCCC[C@H](N)C(=O)O; Stearoyl = CCCCCCCCCCCCCCCCCC(=O)*; Palmitoyl = CCCCCCCCCCCCCCCC(=O)*; αMeF = C[C@](N)(Cc1ccccc1)C(=O)O; αMeK = C[C@](N)(CCCCN)C(=O)O; Nle = CCCC[C@H](N)C(=O)O; AEEA = NCCOCCOCC(=O)O; Aib = CC(C)(N)C(=O)O

Molecular target: T1, RXFP1 (Homo sapiens, UniProt Q9HBX9)
T1 construct: OVCAR5 cells expressing endogenous RXFP1; endogenous in cells; host or cells: OVCAR5 cells
T1 sequence (Q9HBX9 1-757): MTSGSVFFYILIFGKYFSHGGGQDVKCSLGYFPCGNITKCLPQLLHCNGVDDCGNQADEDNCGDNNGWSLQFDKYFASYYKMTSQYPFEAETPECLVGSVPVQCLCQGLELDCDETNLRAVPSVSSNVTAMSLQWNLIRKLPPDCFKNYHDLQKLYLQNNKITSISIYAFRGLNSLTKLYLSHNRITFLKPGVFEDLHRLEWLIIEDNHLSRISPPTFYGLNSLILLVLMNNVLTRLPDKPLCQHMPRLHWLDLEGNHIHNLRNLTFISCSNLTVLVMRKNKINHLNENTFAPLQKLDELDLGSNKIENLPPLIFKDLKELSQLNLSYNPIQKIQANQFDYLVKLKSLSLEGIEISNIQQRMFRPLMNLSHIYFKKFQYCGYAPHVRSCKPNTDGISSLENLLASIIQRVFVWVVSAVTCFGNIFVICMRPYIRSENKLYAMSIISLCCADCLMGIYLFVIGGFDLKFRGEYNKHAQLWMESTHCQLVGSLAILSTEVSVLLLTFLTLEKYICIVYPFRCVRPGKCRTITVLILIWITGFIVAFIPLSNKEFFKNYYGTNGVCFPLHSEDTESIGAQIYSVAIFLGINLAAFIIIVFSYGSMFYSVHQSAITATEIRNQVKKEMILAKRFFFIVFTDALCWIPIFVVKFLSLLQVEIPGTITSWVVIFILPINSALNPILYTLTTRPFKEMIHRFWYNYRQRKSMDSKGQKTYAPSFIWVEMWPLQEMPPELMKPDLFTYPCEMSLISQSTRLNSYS
Assay: OVCAR5 cAMP assay (HTRF), RXFP1 agonist activity
Type: cell-based
Settings: for EC50: OVCAR5 cells, cAMP HTRF, read-out: EC50 (nM), OVCAR 5 cells (cAMP); for Emax: OVCAR-5, maximal cAMP relative to H2-relaxin maximum (100%), read-out: EMax, OVCAR 5 cells (cAMP)
Procedure, shortened: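 OVCAR5 cells (endogenous RXFP1) pretreated 40 min at 37° C with 1 mM IBMX, then exposed to peptides in serum-free medium for 30 min at 37° C. Lysate cAMP read by HTRF; EC50 from variable-slope sigmoidal fit; Emax as % of H2-relaxin maximal cAMP in same run.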

| Compound | EC50 [nM] | Emax [%] |
| --- | --- | --- |
| CCCCCCCCCCCCCCCC(=O)N[C@@H](CCC(=O)N[C@@H](CCC(=O)N[C@@H](CCC(=O)N[C@@H](CCC(=O)NCCCC[C@H](NC(=O)COCCOCCNC(=O)COCCOCCNC(=O)COCCOCCNC(=O)COCCOCCNC(=O)[C@H](CCCCNC(C)=O)NC(=O)[C@H](CCCCN)NC(=O)[C@H](CCCNC(=N)N)NC(=O)[C@](C)(CCCCN)NC(=O)[C@H](CO)NC(=O)[C@H](Cc1ccccc1)NC(=O)[C@@H](NC(=O)[C@H](CO)NC(=O)[C@H](CCCC)NC(=O)CNC(=O)[C@H](CCC(=O)O)NC(=O)C(C)(C)NC(=O)C(C)(C)NC(=O)[C@@H](NC(=O)[C@H](CCCCNC(C)=O)NC(=O)[C@H](C)NC(=O)[C@H](CCCNC(=N)N)NC(=O)[C@@H](NC(=O)[C@H](CCCCN)NC(=O)[C@H](CCC(=O)O)NC(=O)[C@H](CCCNC(=N)N)NC(=O)CNC(=O)[C@H](CCC(=O)O)NC(=O)[C@H](CC(C)C)NC(C)=O)C(C)C)[C@@H](C)CC)[C@@H](C)O)C(N)=O)C(=O)O)C(=O)O)C(=O)O)C(=O)O [compound 143] (Ac-LEGREKVRAK(Ac)I[Aib][Aib]EG[Nle]STFS[αMeK]RKK(Ac)[AEEA][AEEA][AEEA][AEEA]K([γGlu-γGlu-γGlu-γGlu-Palmitoyl])-NH2) | 0.4 | 88 |
| CCCCCCCCCCCCCCCC(=O)N[C@@H](CCC(=O)N[C@@H](CCC(=O)N[C@@H](CCC(=O)NCCCC[C@H](NC(=O)COCCOCCNC(=O)COCCOCCNC(=O)COCCOCCNC(=O)COCCOCCNC(=O)[C@H](CCCCNC(C)=O)NC(=O)[C@H](CCCCN)NC(=O)[C@H](CCCNC(=N)N)NC(=O)C(C)(C)NC(=O)[C@H](CO)NC(=O)[C@H](Cc1ccccc1)NC(=O)[C@@H](NC(=O)[C@H](CO)NC(=O)[C@H](CCCC)NC(=O)CNC(=O)[C@H](CCC(=O)O)NC(=O)C(C)(C)NC(=O)C(C)(C)NC(=O)[C@@H](NC(=O)[C@H](CCCCNC(C)=O)NC(=O)[C@H](C)NC(=O)[C@H](CCCNC(=N)N)NC(=O)[C@@H](NC(=O)[C@H](CCCCN)NC(=O)[C@H](CCC(=O)O)NC(=O)[C@H](CCCNC(=N)N)NC(=O)CNC(=O)[C@H](CCC(=O)O)NC(=O)[C@H](CC(C)C)NC(C)=O)C(C)C)[C@@H](C)CC)[C@@H](C)O)C(N)=O)C(=O)O)C(=O)O)C(=O)O [compound 144] (Ac-LEGREKVRAK(Ac)I[Aib][Aib]EG[Nle]STFS[Aib]RKK(Ac)[AEEA][AEEA][AEEA][AEEA]K([γGlu-γGlu-γGlu-Palmitoyl])-NH2) | – | 94 |
| CCCCCCCCCCCCCCCC(=O)N[C@@H](CCC(=O)NCCCC[C@H](NC(=O)CC[C@H](NC(=O)CC[C@H](NC(=O)CC[C@H](NC(=O)CCC(=O)NCCCOCCOCCOCCCNC(=O)CCC(=O)NCCCOCCOCCOCCCNC(=O)[C@H](CCCCNC(C)=O)NC(=O)[C@H](CCCCN)NC(=O)[C@H](CCCNC(=N)N)NC(=O)[C@](C)(CCCCN)NC(=O)[C@H](CO)NC(=O)[C@H](Cc1ccccc1)NC(=O)[C@@H](NC(=O)[C@H](CO)NC(=O)[C@H](CCCC)NC(=O)CNC(=O)[C@H](CCC(=O)O)NC(=O)C(C)(C)NC(=O)C(C)(C)NC(=O)[C@@H](NC(=O)[C@H](CCCCNC(C)=O)NC(=O)[C@H](C)NC(=O)[C@H](CCCNC(=N)N)NC(=O)[C@@H](NC(=O)[C@H](CCCCN)NC(=O)[C@H](CCC(=O)O)NC(=O)[C@H](CCCNC(=N)N)NC(=O)CNC(=O)[C@H](CCC(=O)O)NC(=O)[C@H](CC(C)C)NC(C)=O)C(C)C)[C@@H](C)CC)[C@@H](C)O)C(=O)O)C(=O)O)C(=O)O)C(N)=O)C(=O)O [compound 146] (Ac-LEGREKVRAK(Ac)I[Aib][Aib]EG[Nle]STFS[αMeK]RKK(Ac)-X5) | 0.02 | 89 |
| CCCCCCCCCCCCCCCC(=O)N[C@@H](CCC(=O)N[C@@H](CCC(=O)N[C@@H](CCC(=O)N[C@@H](CCC(=O)NCCOCCOCC(=O)NCCOCCOCC(=O)NCCOCCOCC(=O)NCCOCCOCC(=O)NCCCC[C@H](NC(=O)[C@H](CCCCNC(C)=O)NC(=O)[C@H](CCCCN)NC(=O)[C@H](CCCNC(=N)N)NC(=O)C(C)(C)NC(=O)[C@H](CO)NC(=O)[C@H](Cc1ccccc1)NC(=O)[C@@H](NC(=O)[C@H](CO)NC(=O)[C@H](CCCC)NC(=O)CNC(=O)[C@H](CCC(=O)O)NC(=O)C(C)(C)NC(=O)C(C)(C)NC(=O)[C@@H](NC(=O)[C@H](CCCCNC(C)=O)NC(=O)[C@H](C)NC(=O)[C@H](CCCNC(=N)N)NC(=O)[C@@H](NC(=O)[C@H](CCCCN)NC(=O)[C@H](CCC(=O)O)NC(=O)[C@H](CCCNC(=N)N)NC(=O)CNC(=O)[C@H](CCC(=O)O)NC(=O)[C@H](CC(C)C)NC(C)=O)C(C)C)[C@@H](C)CC)[C@@H](C)O)C(N)=O)C(=O)O)C(=O)O)C(=O)O)C(=O)O [compound 147] (Ac-LEGREKVRAK(Ac)I[Aib][Aib]EG[Nle]STFS[Aib]RKK(Ac)K([AEEA-AEEA-AEEA-AEEA-γGlu-γGlu-γGlu-γGlu-Palmitoyl])-NH2) | – | 86 |
| CCCCCCCCCCCCCCCCCC(=O)N[C@@H](CCC(=O)N[C@@H](CCC(=O)N[C@@H](CCC(=O)NCCOCCOCC(=O)NCCOCCOCC(=O)NCCOCCOCC(=O)NCCCC[C@H](NC(=O)[C@H](CCCCNC(C)=O)NC(=O)[C@H](CCCCN)NC(=O)[C@H](CCCNC(=NC)NC)NC(=O)C(C)(C)NC(=O)[C@H](CO)NC(=O)[C@H](Cc1c[nH]c2ccccc12)NC(=O)[C@@H](NC(=O)[C@H](CO)NC(=O)[C@H](CCCC)NC(=O)CNC(=O)[C@H](CCC(=O)O)NC(=O)C(C)(C)NC(=O)C(C)(C)NC(=O)[C@@H](NC(=O)[C@H](CCCCNC(C)=O)NC(=O)[C@H](C)NC(=O)[C@H](CCCNC(=N)N)NC(=O)[C@@H](NC(=O)[C@H](CCCCN)NC(=O)[C@H](CCC(=O)O)NC(=O)[C@H](CCCNC(=N)N)NC(=O)CNC(=O)[C@H](CCC(=O)O)NC(=O)[C@H](CC(C)C)NC(C)=O)C(C)C)[C@@H](C)CC)[C@@H](C)O)C(N)=O)C(=O)O)C(=O)O)C(=O)O [compound 148] (Ac-LEGREKVRAK(Ac)I[Aib][Aib]EG[Nle]STWS[Aib][Arg(Me2s)]KK(Ac)K([AEEA-AEEA-AEEA-γGlu-γGlu-γGlu-Stearoyl])-NH2) | – | 94 |
| CCCCCCCCCCCCCCCC(=O)N[C@@H](CCC(=O)NCCCC[C@H](NC(=O)CC[C@H](NC(=O)CC[C@H](NC(=O)CC[C@H](NC(=O)COCCOCCNC(=O)COCCOCCNC(=O)COCCOCCNC(=O)COCCOCCNC(=O)[C@H](CCCCNC(C)=O)NC(=O)[C@H](C)NC(=O)[C@H](CCCNC(=N)NC)NC(=O)[C@](C)(CCCCN)NC(=O)[C@H](CO)NC(=O)[C@H](Cc1ccccc1)NC(=O)[C@@H](NC(=O)[C@H](CO)NC(=O)[C@H](CCCC)NC(=O)CNC(=O)[C@H](CCC(=O)O)NC(=O)C(C)(C)NC(=O)C(C)(C)NC(=O)[C@@H](NC(=O)[C@H](CCCCNC(C)=O)NC(=O)[C@H](C)NC(=O)[C@H](CCCNC(=N)N)NC(=O)[C@@H](NC(=O)[C@H](CCCCN)NC(=O)[C@H](CCC(=O)O)NC(=O)[C@H](CCCNC(=N)N)NC(=O)CNC(=O)[C@H](CCC(=O)O)NC(=O)[C@H](CC(C)C)NC(C)=O)C(C)C)[C@@H](C)CC)[C@@H](C)O)C(=O)O)C(=O)O)C(=O)O)C(N)=O)C(=O)O [compound 151] (Ac-LEGREKVRAK(Ac)I[Aib][Aib]EG[Nle]STFS[αMeK][Arg(Me)]AK(Ac)[AEEA][AEEA][AEEA][AEEA][γGlu][γGlu][γGlu]K([γGlu-Palmitoyl])-NH2) | 0.14 | 90 |
| CCCCCCCCCCCCCCCC(=O)N[C@@H](CCC(=O)NCCCC[C@H](NC(=O)CC[C@H](NC(=O)CC[C@H](NC(=O)CC[C@H](NC(=O)COCCOCCNC(=O)COCCOCCNC(=O)COCCOCCNC(=O)COCCOCCNC(=O)[C@H](CCCCNC(C)=O)NC(=O)[C@H](CCCCN)NC(=O)[C@H](CCCNC(=N)N)NC(=O)[C@](C)(CCCCN)NC(=O)[C@H](CO)NC(=O)[C@](C)(Cc1ccccc1)NC(=O)[C@@H](NC(=O)[C@H](CO)NC(=O)[C@H](CCCC)NC(=O)CNC(=O)[C@H](CCC(=O)O)NC(=O)C(C)(C)NC(=O)C(C)(C)NC(=O)[C@@H](NC(=O)[C@H](CCCCNC(C)=O)NC(=O)[C@H](C)NC(=O)[C@H](CCCNC(=N)N)NC(=O)[C@@H](NC(=O)[C@H](CCCCN)NC(=O)[C@H](CCC(=O)O)NC(=O)[C@H](CCCNC(=N)N)NC(=O)CNC(=O)[C@H](CCC(=O)O)NC(=O)[C@H](CC(C)C)NC(C)=O)C(C)C)[C@@H](C)CC)[C@@H](C)O)C(=O)O)C(=O)O)C(=O)O)C(N)=O)C(=O)O [compound 152] (Ac-LEGREKVRAK(Ac)I[Aib][Aib]EG[Nle]ST[αMeF]S[αMeK]RKK(Ac)[AEEA][AEEA][AEEA][AEEA][γGlu][γGlu][γGlu]K([γGlu-Palmitoyl])-NH2) | – | 91 |
